Test results from US12297213B2, “Metal hydroxide complex comprising modified multilayer hydroxide structure comprising active ingredient and method of manufacturing same” (CNPHARM CO., LTD., priority 2018, dated 2025).

Assays:
COL1A1 mRNA = test: COL1A1 (type 1 collagen) mRNA expression by qRT-PCR in human dermal fibroblasts; format: cell-based; conditions: positive control at 5.0 ng/ml, mean±SD
Method: (§1) For the in-vitro collagen production increase test of Example 3 (hereinafter, referred to as “JL-101 powder”), normal human dermal fibroblasts (HDFs) were used. In order to set the test solution concentration of the sample, HDFs were treated with the sample material for 24 hr and the concentration range in which cytotoxicity was not observed was confirmed through a cytotoxicity test. HDFs were treated with 'JL-101 powder' at the set test solution concentration in the same manner, and thus the expression levels of COL1A1 and COL3A1 mRNA, which are collagen genes, were compared and analyzed using real-time PCR (RT-PCR). […] The expression level of a collagen gene was determined by measuring the expression levels of a COL1A1 gene, which is a representative component of type 1 collagen, and of a COL3A1 gene, which is a representative component of type 3 collagen, using quantitative real-time PCR (qRT-PCR) (Peter, 2008). […] The concentration and purity (A260/A280 and A260/A230 ratio) of total mRNA were measured using a MaestroNano® microvolume spectrophotometer (Maestrogen, Las Vegas, NV, USA), and only total mRNA having high purity of 2.0 or more was selected. […] Mix Plus (Solis BioDyne, Estonia), and the expression of the corresponding gene was analyzed using Line-Gene K software (Bioer Technology Co. Ltd., Hangzhou, China). […]

COL3A1 mRNA = test: COL3A1 (type 3 collagen) mRNA expression by qRT-PCR in human dermal fibroblasts; format: cell-based; conditions: positive control at 5.0 ng/ml, mean±SD
Method: as §1

TGF-β
increase of expression of COL1A1 mRNA compared to the negative control (COL1A1 mRNA): 219.65±7.25%
increase of expression of COL3A1 mRNA compared to the negative control (COL3A1 mRNA): 22.93±6.21%
